What follows are molecules tested against recombinant human integrin αvβ6 (Homo sapiens (Human), UniProt P06756+P18564) (assay: Solid Phase Integrin αvβ6 Binding Assay (Examples B1, B2)). Details: TGFβ1 LAP ligand, values given in four ranges, read-out: αvβ6 Inhibition IC50 (nM)-range.
Method: (§1) Microplates were coated with recombinant human integrin αvβ6 (2 μg/mL) in PBS (100 μL/well 25° C., overnight). The coating solution was removed, washed with wash buffer (0.05% Tween 20; 0.5 mM MnCl2; in 1×TBS). The plate was blocked with 200 μL/well of Block Buffer (1% BSA; 5% sucrose; 0.5 mM MnCl2; in 1×TBS) at 37° C. for 2 h. Dilutions of testing compounds and recombinant TGFβ1 LAP (0.67 μg/mL) in binding buffer (0.05% BSA; 2.5% sucrose; 0.5 mM MnCl2; in 1×TBS) were added. The plate was incubated for 2 hours at 25° C., washed, and incubated for 1 hour with Biotin-Anti-hLAP. Bound antibody was detected by peroxidase-conjugated streptavidin. The IC50 values for testing compounds were calculated by four-parameter logistic regression.
The compounds tested were compound samples prepared according to procedures described in the Synthetic Examples section, with the stereochemical purity as indicated in the Examples.
as §1, with “A third series of exemplary compounds was selected for testing in the solid phase integrin αvβ6 binding assay. The compounds tested were compound samples prepared according to procedures described in the Synthetic Examples section, with the stereochemical purity as indicated in the Examples. As in Example B1, microplates were coated” for “Microplates were coated”, “calculated by a four-parameter logistic” for “calculated by four-parameter logistic”

recombinant human integrin αvβ6, sequence (P06756 31-992): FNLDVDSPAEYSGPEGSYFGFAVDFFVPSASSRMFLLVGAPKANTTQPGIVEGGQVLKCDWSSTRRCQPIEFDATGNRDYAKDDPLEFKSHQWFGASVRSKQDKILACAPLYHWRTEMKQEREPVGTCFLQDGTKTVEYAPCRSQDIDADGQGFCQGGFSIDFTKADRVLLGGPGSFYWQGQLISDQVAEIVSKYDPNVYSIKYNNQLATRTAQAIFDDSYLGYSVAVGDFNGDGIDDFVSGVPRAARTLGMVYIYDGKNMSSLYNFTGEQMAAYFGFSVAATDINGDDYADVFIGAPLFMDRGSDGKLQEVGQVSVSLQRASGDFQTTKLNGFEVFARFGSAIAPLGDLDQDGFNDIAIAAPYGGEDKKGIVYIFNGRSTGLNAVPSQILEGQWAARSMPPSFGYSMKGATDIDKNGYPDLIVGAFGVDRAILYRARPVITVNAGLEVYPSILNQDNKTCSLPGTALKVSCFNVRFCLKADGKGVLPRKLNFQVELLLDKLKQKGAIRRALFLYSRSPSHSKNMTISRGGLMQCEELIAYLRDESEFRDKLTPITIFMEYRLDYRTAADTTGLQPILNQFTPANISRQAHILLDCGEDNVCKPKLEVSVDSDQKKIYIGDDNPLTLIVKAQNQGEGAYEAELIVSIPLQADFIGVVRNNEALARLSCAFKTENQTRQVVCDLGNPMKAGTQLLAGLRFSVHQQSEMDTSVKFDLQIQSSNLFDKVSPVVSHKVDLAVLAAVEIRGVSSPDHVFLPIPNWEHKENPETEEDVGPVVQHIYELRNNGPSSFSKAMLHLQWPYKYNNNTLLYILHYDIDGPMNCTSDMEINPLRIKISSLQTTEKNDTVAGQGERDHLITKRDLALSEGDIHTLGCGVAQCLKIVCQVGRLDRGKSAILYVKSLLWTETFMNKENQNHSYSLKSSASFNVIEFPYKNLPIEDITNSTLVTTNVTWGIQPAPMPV
recombinant human integrin αvβ6, sequence (P18564 22-707): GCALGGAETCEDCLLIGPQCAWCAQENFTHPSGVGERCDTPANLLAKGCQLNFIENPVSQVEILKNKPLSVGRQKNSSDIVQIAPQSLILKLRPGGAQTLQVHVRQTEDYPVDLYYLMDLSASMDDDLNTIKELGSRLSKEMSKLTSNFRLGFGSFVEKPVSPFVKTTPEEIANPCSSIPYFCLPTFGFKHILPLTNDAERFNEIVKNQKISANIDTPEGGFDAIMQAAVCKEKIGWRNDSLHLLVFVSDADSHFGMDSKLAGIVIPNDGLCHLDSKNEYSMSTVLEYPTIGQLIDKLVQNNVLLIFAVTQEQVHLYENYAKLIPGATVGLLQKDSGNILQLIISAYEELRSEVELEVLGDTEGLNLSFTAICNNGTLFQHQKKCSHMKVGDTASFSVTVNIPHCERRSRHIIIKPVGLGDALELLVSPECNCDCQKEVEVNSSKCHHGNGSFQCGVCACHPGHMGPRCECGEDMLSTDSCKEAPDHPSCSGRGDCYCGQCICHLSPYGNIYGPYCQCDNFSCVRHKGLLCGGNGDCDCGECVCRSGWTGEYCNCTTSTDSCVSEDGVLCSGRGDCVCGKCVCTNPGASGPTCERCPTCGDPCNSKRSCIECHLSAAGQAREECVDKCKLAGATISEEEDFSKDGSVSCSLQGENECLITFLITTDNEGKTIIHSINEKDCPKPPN

SMILES	IC50 [nM]
COC[C@@H](F)CN(CCCCc1ccc2c(n1)NCCC2)CC[C@H](Nc1nc(C)nc2ccccc12)C(=O)O [Compound 46, (S)-4-(((S)-2-fluoro-3-methoxypropyl) (4-(5,6,7,8-tetrahydro-1,8-naphthyridin-2-yl)butyl)amino)-2-((2-methylquinazolin-4-yl)amino) butanoic acid]	< 50
O=C(O)[C@H](CCN(CCCCc1ccc2c(n1)NCCC2)CCOc1cc(F)cc(F)c1)Nc1ncnc2ccccc12 [Compound 47, (S)-4-((2-(3,5-difluorophenoxy)ethyl) (4-(5,6,7,8-tetrahydro-1,8-naphthyridin-2-yl)butyl)amino)-2-(quinazolin-4-ylamino) butanoic acid]	< 50
O=C(O)[C@H](CCN(CCCCc1ccc2c(n1)NCCC2)CCOc1ccccn1)Nc1ncnc2c(Cl)cccc12 [Compound 48, (S)-2-((8-chloroquinazolin-4-yl)amino)-4-((2-(pyridin-2-yloxy)ethyl) (4-(5,6,7,8-tetrahydro-1,8-naphthyridin-2-yl)butyl)amino) butanoic acid]	< 50
O=C(O)[C@H](CCN(CCCCc1ccc2c(n1)NCCC2)CCOc1ccccn1)Nc1ncnc2ccccc12 [Compound 49, (S)-4-((2-(pyridin-2-yloxy)ethyl) (4-(5,6,7,8-tetrahydro-1,8-naphthyridin-2-yl)butyl)amino)-2-(quinazolin-4-ylamino) butanoic acid]	< 50
O=C(O)[C@H](CCN(CCCCc1ccc2c(n1)NCCC2)CCOCC(F)F)Nc1ncnc2ccccc12 [Compound 50, (S)-4-((2-(2,2-difluoroethoxy)ethyl) (4-(5,6,7,8-tetrahydro-1,8-naphthyridin-2-yl)butyl)amino)-2-(quinazolin-4-ylamino) butanoic acid]	< 50
O=C(O)[C@H](CCN(CCCCc1ccc2c(n1)NCCC2)CCOCC(F)(F)F)Nc1ncnc2cccnc12 [Compound 51, (S)-2-(pyrido[3,2-d]pyrimidin-4-ylamino)-4-((4-(5,6,7,8-tetrahydro-1,8-naphthyridin-2-yl)butyl) (2-(2,2,2-trifluoroethoxy)ethyl)amino) butanoic acid]	< 50
Cc1ncccc1OCCN(CCCCc1ccc2c(n1)NCCC2)CC[C@H](Nc1ncnc2ccccc12)C(=O)O [Compound 52, (S)-4-((2-((2-methylpyridin-3-yl)oxy)ethyl) (4-(5,6,7,8-tetrahydro-1,8-naphthyridin-2-yl)butyl)amino)-2-(quinazolin-4-ylamino) butanoic acid]	< 50
Cc1nc(N[C@@H](CCN(CCCCc2ccc3c(n2)NCCC3)CCOc2cccnc2C)C(=O)O)c2ccc(F)cc2n1 [Compound 53, (S)-2-((7-fluoro-2-methylquinazolin-4-yl)amino)-4-((2-((2-methylpyridin-3-yl)oxy)ethyl) (4-(5,6,7,8-tetrahydro-1,8-naphthyridin-2-yl)butyl)amino) butanoic acid]	< 50
Cc1ncccc1OCCN(CCCCc1ccc2c(n1)NCCC2)CC[C@H](Nc1ncnc2cccnc12)C(=O)O [Compound 54, (S)-4-((2-((2-methylpyridin-3-yl)oxy)ethyl) (4-(5,6,7,8-tetrahydro-1,8-naphthyridin-2-yl)butyl)amino)-2-(pyrido[3,2-d]pyrimidin-4-ylamino) butanoic acid]	< 50
CCOCCN(CCCCc1ccc2c(n1)NCCC2)CC[C@H](Nc1ncnc2ccccc12)C(=O)O [Compound 55, (S)-4-((2-ethoxyethyl) (4-(5,6,7,8-tetrahydro-1,8-naphthyridin-2-yl)butyl)amino)-2-(quinazolin-4-ylamino) butanoic acid]	< 50
Cc1ccc(OCCN(CCCCc2ccc3c(n2)NCCC3)CC[C@H](Nc2nc(C)nc3cc(F)ccc23)C(=O)O)cn1 [Compound 56, (S)-2-((7-fluoro-2-methylquinazolin-4-yl)amino)-4-((2-((6-methylpyridin-3-yl)oxy)ethyl) (4-(5,6,7,8-tetrahydro-1,8-naphthyridin-2-yl)butyl)amino) butanoic acid]	< 50
Cc1ccc(OCCN(CCCCc2ccc3c(n2)NCCC3)CC[C@H](Nc2ncnc3cccnc23)C(=O)O)cn1 [Compound 57, (S)-4-((2-((6-methylpyridin-3-yl)oxy)ethyl) (4-(5,6,7,8-tetrahydro-1,8-naphthyridin-2-yl)butyl)amino)-2-(pyrido[3,2-d]pyrimidin-4-ylamino) butanoic acid]	< 50
O=C(O)[C@H](CCN(CCCCc1ccc2c(n1)NCCC2)CCOc1cncc(F)c1)Nc1ncnc2ccccc12 [Compound 58, (S)-4-((2-((5-fluoropyridin-3-yl)oxy)ethyl) (4-(5,6,7,8-tetrahydro-1,8-naphthyridin-2-yl)butyl)amino)-2-(quinazolin-4-ylamino) butanoic acid]	< 50
Cc1ccc(OCCN(CCCCc2ccc3c(n2)NCCC3)CC[C@H](Nc2ncnc3ccccc23)C(=O)O)cn1 [Compound 59, (S)-4-((2-((6-methylpyridin-3-yl)oxy)ethyl) (4-(5,6,7,8-tetrahydro-1,8-naphthyridin-2-yl)butyl)amino)-2-(quinazolin-4-ylamino) butanoic acid]	< 50
O=C(O)[C@H](CCN(CCCCc1ccc2c(n1)NCCC2)CCOc1cncc(F)c1)Nc1ncnc2cccnc12 [Compound 60, (S)-4-((2-((5-fluoropyridin-3-yl)oxy)ethyl) (4-(5,6,7,8-tetrahydro-1,8-naphthyridin-2-yl)butyl)amino)-2-(pyrido[3,2-d]pyrimidin-4-ylamino) butanoic acid]	< 50
Cc1nc(N[C@@H](CCN(CCCCc2ccc3c(n2)NCCC3)CCOc2cncc(F)c2)C(=O)O)c2ccc(F)cc2n1 [Compound 61, (S)-2-((7-fluoro-2-methylquinazolin-4-yl)amino)-4-((2-((5-fluoropyridin-3-yl)oxy)ethyl) (4-(5,6,7,8-tetrahydro-1,8-naphthyridin-2-yl)butyl)amino) butanoic acid]	< 50
CO[C@H](C)CN(CCCCc1ccc2c(n1)NCCC2)CC[C@H](Nc1ncnc2ccccc12)C(=O)O [Compound 62, (S)-4-(((R)-2-methoxypropyl) (4-(5,6,7,8-tetrahydro-1,8-naphthyridin-2-yl)butyl)amino)-2-(quinazolin-4-ylamino) butanoic acid]	< 50
CC(=O)NCCN(CCCCc1ccc2c(n1)NCCC2)CC[C@H](Nc1ncnc2ccccc12)C(=O)O [Compound 63, (S)-4-((2-acetamidoethyl) (4-(5,6,7,8-tetrahydro-1,8-naphthyridin-2-yl)butyl)amino)-2-(quinazolin-4-ylamino) butanoic acid]	< 50
CN(C)C(=O)CN(CCCCc1ccc2c(n1)NCCC2)CC[C@H](Nc1ncnc2ccccc12)C(=O)O [Compound 64, (S)-4-((2-(dimethylamino)-2-oxoethyl) (4-(5,6,7,8-tetrahydro-1,8-naphthyridin-2-yl)butyl)amino)-2-(quinazolin-4-ylamino) butanoic acid]	< 50
CO[C@H](C)CN(CCCCc1ccc2c(n1)NCCC2)CC[C@H](Nc1nc(C)nc2cc(F)ccc12)C(=O)O [Compound 65, (S)-2-((7-fluoro-2-methylquinazolin-4-yl)amino)-4-(((R)-2-methoxypropyl) (4-(5,6,7,8-tetrahydro-1,8-naphthyridin-2-yl)butyl)amino) butanoic acid]	< 50
CO[C@H](C)CN(CCCCc1ccc2c(n1)NCCC2)CC[C@H](Nc1nc(C)nc2ccccc12)C(=O)O [Compound 66, (S)-4-(((R)-2-methoxypropyl) (4-(5,6,7,8-tetrahydro-1,8-naphthyridin-2-yl)butyl)amino)-2-((2-methylquinazolin-4-yl)amino) butanoic acid]	< 50
COCCN(CCCCc1ccc2c(n1)NCCC2)CC[C@H](Nc1nccnc1C#N)C(=O)O [Compound 67, (S)-2-((3-cyanopyrazin-2-yl)amino)-4-((2-methoxyethyl) (4-(5,6,7,8-tetrahydro-1,8-naphthyridin-2-yl)butyl)amino) butanoic acid]	< 50
CO[C@H](C)CN(CCCCc1ccc2c(n1)NCCC2)CC[C@H](Nc1ncc(C#N)cn1)C(=O)O [Compound 68, (S)-2-((5-cyanopyrimidin-2-yl)amino)-4-(((R)-2-methoxypropyl) (4-(5,6,7,8-tetrahydro-1,8-naphthyridin-2-yl)butyl)amino) butanoic acid]	< 50
CO[C@H](C)CN(CCCCc1ccc2c(n1)NCCC2)CC[C@H](Nc1ncc(C(F)(F)F)cn1)C(=O)O [Compound 69, (S)-4-(((R)-2-methoxypropyl) (4-(5,6,7,8-tetrahydro-1,8-naphthyridin-2-yl)butyl)amino)-2-((5-(trifluoromethyl)pyrimidin-2-yl)amino) butanoic acid]	< 50
